System: MV-4-11 cells
Assay: Gene expression microarray analysis (Affymetrix PrimeView) and GSEA
Type: cell-based, human
Parameters: RFU PODN (11730768_x_at) / Fold change /veh PODN (11730768_x_at) / RFU LINC00158 (11744669_a_at) / Fold change /veh LINC00158 (11744669_a_at) / RFU DUSP10 (11751237_a_at) / Fold change /veh DUSP10 (11751237_a_at) / RFU ID3 (11757404_x_at) / Fold change /veh ID3 (11757404_x_at) / RFU PLEKHG5 (11737974_s_at) / Fold change /veh PLEKHG5 (11737974_s_at) / RFU LRRC4B (11730491_at) / Fold change /veh LRRC4B (11730491_at) / RFU GIMAP4 (11747438_a_at) / Fold change /veh GIMAP4 (11747438_a_at) / RFU KRT8 (11758183_x_at) / Fold change /veh KRT8 (11758183_x_at) / RFU CNN1 (11734310_a_at) / Fold change /veh CNN1 (11734310_a_at) / RFU VPS37D (11726825_at) / Fold change /veh VPS37D (11726825_at) / RFU C10orf10 (11716522_x_at) / Fold change /veh C10orf10 (11716522_x_at) / RFU KIR2DL2 /// KIR2DL4 /// KIR2DL5A /// KIR2DL5B /// KIR2DS1 /// KIR2DS2 /// KIR2DS3 /// KIR2DS4 /// KIR3DL3 /// KIR3DL3 /// KIR3DS1 (11738374_at) / Fold change /veh KIR2DL2 /// KIR2DL4 /// KIR2DL5A /// KIR2DL5B /// KIR2DS1 /// KIR2DS2 /// KIR2DS3 /// KIR2DS4 /// KIR3DL3 /// KIR3DL3 /// KIR3DS1 (11738374_at) / RFU C1QL1 (11718748_at) / Fold change /veh C1QL1 (11718748_at) / RFU TMPRSS4 (11747572_a_at) / Fold change /veh TMPRSS4 (11747572_a_at) / RFU HAMP (11756126_x_at) / Fold change /veh HAMP (11756126_x_at) / RFU RNFT2 (11725882_a_at) / Fold change /veh RNFT2 (11725882_a_at) / RFU NR4A2 (11747474_a_at) / Fold change /veh NR4A2 (11747474_a_at) / RFU ABCC12 (11746883_a_at) / Fold change /veh ABCC12 (11746883_a_at) / RFU TMEM136 (11760407_x_at) / Fold change /veh TMEM136 (11760407_x_at) / RFU CLDN22 /// WWC2 (11732394_at) / Fold change /veh CLDN22 /// WWC2 (11732394_at) / RFU HLA-DPB1 (11760878_x_at) / Fold change /veh HLA-DPB1 (11760878_x_at) / RFU SPINT1 (11716480_a_at) / Fold change /veh SPINT1 (11716480_a_at) / RFU GAP43 (11754022_s_at) / Fold change /veh GAP43 (11754022_s_at) / RFU A4GNT (11735810_at) / Fold change /veh A4GNT (11735810_at) / RFU PRB3 (11715151_x_at) / Fold change /veh PRB3 (11715151_x_at) / RFU TUBB4B (11761932_at) / Fold change /veh TUBB4B (11761932_at) / RFU CAPN14 (11732068_a_at) / Fold change /veh CAPN14 (11732068_a_at) / RFU TMCC2 (11721928_a_at) / Fold change /veh TMCC2 (11721928_a_at) / RFU IRGQ (11745062_a_at) / Fold change /veh IRGQ (11745062_a_at) / RFU FAM174B (11720279_a_at) / Fold change /veh FAM174B (11720279_a_at) / RFU TMPRSS4 (11748680_a_at) / Fold change /veh TMPRSS4 (11748680_a_at) / RFU FAM212B (11763350_a_at) / Fold change /veh FAM212B (11763350_a_at) / RFU PLEKHG5 (11743358_a_at) / Fold change /veh PLEKHG5 (11743358_a_at) / RFU ZSCAN30 (11745921_a_at) / Fold change /veh ZSCAN30 (11745921_a_at) / RFU CMKLR1 (11741424_a_at) / Fold change /veh CMKLR1 (11741424_a_at) / RFU LOC101060620 /// MAPK8IP1 (11723275_at) / Fold change /veh LOC101060620 /// MAPK8IP1 (11723275_at) / RFU SPTSSB (11747773_x_at) / Fold change /veh SPTSSB (11747773_x_at) / RFU PRSS12 (11739890_at) / Fold change /veh PRSS12 (11739890_at) / RFU BIN1 (11741810_x_at) / Fold change /veh BIN1 (11741810_x_at) / RFU WNT11 (11732464_a_at) / Fold change /veh WNT11 (11732464_a_at) / RFU C10orf10 (11716521_a_at) / Fold change /veh C10orf10 (11716521_a_at) / RFU C5orf56 (11738089_at) / Fold change /veh C5orf56 (11738089_at) / RFU CYB561 (11721691_x_at) / Fold change /veh CYB561 (11721691_x_at) / RFU ANKRD19P (11752326_a_at) / Fold change /veh ANKRD19P (11752326_a_at) / RFU OR2T12 /// OR2T33 /// OR2T8 (11738714_s_at) / Fold change /veh OR2T12 /// OR2T33 /// OR2T8 (11738714_s_at) / RFU VCAN (11748164_a_at) / Fold change /veh VCAN (11748164_a_at) / RFU JSRP1 (11732532_at) / Fold change /veh JSRP1 (11732532_at) / RFU KRTAP10-11 (11738290_x_at) / Fold change /veh KRTAP10-11 (11738290_x_at) / RFU MYO3A (11730013_a_at) / Fold change /veh MYO3A (11730013_a_at) / RFU EBF3 (11725865_a_at) / Fold change /veh EBF3 (11725865_a_at) / RFU CAMK2N1 (11719241_x_at) / Fold change /veh CAMK2N1 (11719241_x_at) / RFU C5orf56 (11738088_a_at) / Fold change /veh C5orf56 (11738088_a_at) / RFU OLFML3 (11715873_a_at) / Fold change /veh OLFML3 (11715873_a_at) / RFU LOC100653217 /// NTM (11731650_a_at) / Fold change /veh LOC100653217 /// NTM (11731650_a_at) / RFU MAPK11 (11762145_a_at) / Fold change /veh MAPK11 (11762145_a_at) / RFU FIZ1 (11724087_x_at) / Fold change /veh FIZ1 (11724087_x_at) / RFU OASL (11726364_x_at) / Fold change /veh OASL (11726364_x_at) / RFU SOX15 (11748057_x_at) / Fold change /veh SOX15 (11748057_x_at) / RFU CD79A (11719716_a_at) / Fold change /veh CD79A (11719716_a_at) / RFU HIST1H1D (11736915_at) / Fold change /veh HIST1H1D (11736915_at) / RFU CASKIN2 (11723855_a_at) / Fold change /veh CASKIN2 (11723855_a_at) / RFU LOC730098 (11760151_x_at) / Fold change /veh LOC730098 (11760151_x_at) / RFU OR4N2 (11742367_at) / Fold change /veh OR4N2 (11742367_at) / RFU PRRT2 (11749266_a_at) / Fold change /veh PRRT2 (11749266_a_at) / RFU SNX32 (11753110_a_at) / Fold change /veh SNX32 (11753110_a_at) / RFU CDHR5 (11726645_a_at) / Fold change /veh CDHR5 (11726645_a_at) / RFU RCAN1 (11760418_a_at) / Fold change /veh RCAN1 (11760418_a_at) / RFU FAM167A (11723789_a_at) / Fold change /veh FAM167A (11723789_a_at) / RFU FAM26E (11764081_at) / Fold change /veh FAM26E (11764081_at) / RFU ISYNA1 (11749810_s_at) / Fold change /veh ISYNA1 (11749810_s_at) / RFU ACY1 (11761880_at) / Fold change /veh ACY1 (11761880_at) / RFU 11764098_at / Fold change /veh 11764098_at / RFU SAMD14 (11745864_x_at) / Fold change /veh SAMD14 (11745864_x_at) / RFU NPB (11741838_a_at) / Fold change /veh NPB (11741838_a_at) / RFU TMPRSS6 (11731388_a_at) / Fold change /veh TMPRSS6 (11731388_a_at) / RFU KRTAP10-2 (11738614_at) / Fold change /veh KRTAP10-2 (11738614_at) / RFU ARHGAP8 /// PRR5-ARHGAP8 (11727945_x_at) / Fold change /veh ARHGAP8 /// PRR5-ARHGAP8 (11727945_x_at) / RFU KRTAP5-7 /// NADSYN1 (11734609_at) / Fold change /veh KRTAP5-7 /// NADSYN1 (11734609_at) / RFU RASL12 (11751679_a_at) / Fold change /veh RASL12 (11751679_a_at) / RFU CDKN2B (11736163_a_at) / Fold change /veh CDKN2B (11736163_a_at) / RFU PRF1 (11729649_at) / Fold change /veh PRF1 (11729649_at) / RFU, ZNF638 /// ZNF638-IT1 / Fold change vs veh, ZNF638 /// ZNF638-IT1 / RFU, PANK3 / Fold change vs veh, PANK3 / RFU, SH3YL1 / Fold change vs veh, SH3YL1 / RFU, ZEB2 / Fold change vs veh, ZEB2 / RFU, NRIP1 / Fold change vs veh, NRIP1 / RFU, PTTG1IP / Fold change vs veh, PTTG1IP / RFU, CAPN2 / Fold change vs veh, CAPN2 / RFU, MED14 / Fold change vs veh, MED14 / RFU, SNORA58 / Fold change vs veh, SNORA58 / RFU, C1orf63 / Fold change vs veh, C1orf63 / RFU, LRRFIP1 / Fold change vs veh, LRRFIP1 / RFU, NDUFAF7 / Fold change vs veh, NDUFAF7 / RFU, SLC12A2 / Fold change vs veh, SLC12A2 / RFU, IBTK / Fold change vs veh, IBTK / RFU, ESF1 / Fold change vs veh, ESF1 / Fold change vs veh, TMEM50B / RFU, TAOK1 / Fold change vs veh, TAOK1 / RFU, ACBD3 / Fold change vs veh, ACBD3 / RFU, TMA16 / Fold change vs veh, TMA16 / RFU, RWDD3 / Fold change vs veh, RWDD3 / RFU, BCAT1 / Fold change vs veh, BCAT1 / RFU, EDEM3 / Fold change vs veh, EDEM3 / RFU, TMEM33 / Fold change vs veh, TMEM33 / RFU, WDR75 / Fold change vs veh, WDR75 / RFU, AHCTF1 / Fold change vs veh, AHCTF1 / RFU, TFRC / Fold change vs veh, TFRC / RFU, ZDHHC17 / Fold change vs veh, ZDHHC17 / RFU, NOM1 / Fold change vs veh, NOM1 / RFU, ARL8B / Fold change vs veh, ARL8B / RFU, ZBTB11 / Fold change vs veh, ZBTB11 / RFU, TAMM41 / Fold change vs veh, TAMM41 / RFU, KIAA1704 /// LOC100996395 / Fold change vs veh, KIAA1704 /// LOC100996395 / RFU, ING1 / Fold change vs veh, ING1 / RFU, TRMT61B / Fold change vs veh, TRMT61B / RFU, FUBP3 / Fold change vs veh, FUBP3 / RFU, TP53 / Fold change vs veh, TP53 / RFU, TNKS2 / Fold change vs veh, TNKS2 / RFU, ZFP14 / Fold change vs veh, ZFP14 / RFU, ACTR2 / Fold change vs veh, ACTR2 / RFU, PPP3R1 / Fold change vs veh, PPP3R1 / RFU, PIK3R1 / Fold change vs veh, PIK3R1 / RFU, HNRNPA1 / Fold change vs veh, HNRNPA1 / RFU, RNF170 / Fold change vs veh, RNF170 / RFU, ZNF28 / Fold change vs veh, ZNF28 / RFU, RNGTT / Fold change vs veh, RNGTT / RFU, OGT / Fold change vs veh, OGT / RFU, BRD1 / Fold change vs veh, BRD1 / RFU, MARS / Fold change vs veh, MARS / RFU, ZNF655 / Fold change vs veh, ZNF655 / RFU, FAHD1 / Fold change vs veh, FAHD1 / RFU, BDP1 / Fold change vs veh, BDP1 / RFU, LRRCC1 / Fold change vs veh, LRRCC1 / RFU, ARID1A / Fold change vs veh, ARID1A / RFU, ZNF146 / Fold change vs veh, ZNF146 / RFU, ZNF330 / Fold change vs veh, ZNF330 / RFU, GPN3 / Fold change vs veh, GPN3 / RFU, C9orf123 / Fold change vs veh, C9orf123 / RFU, N4BP2L2 / Fold change vs veh, N4BP2L2 / RFU, ARFIP1 / Fold change vs veh, ARFIP1 / RFU, FAM179B / Fold change vs veh, FAM179B / RFU, BCL10 / Fold change vs veh, BCL10 / RFU, UHRF1BP1L / Fold change vs veh, UHRF1BP1L / RFU, BET1 / Fold change vs veh, BET1 / RFU, CNOT2 / Fold change vs veh, CNOT2 / RFU, ZNF268 / Fold change vs veh, ZNF268 / Fold change vs veh, ZNF507 / RFU, DGCR2 / Fold change vs veh, DGCR2 / RFU, WDSUB1 / Fold change vs veh, WDSUB1 / Fold change vs veh, HSP90B1 /// MIR3652 / RFU, ADSS / Fold change vs veh, ADSS / RFU, GK / Fold change vs veh, GK / RFU, ZNF148 / Fold change vs veh, ZNF148 / RFU, TAF9 / Fold change vs veh, TAF9 / RFU, SLC1A5 / Fold change vs veh, SLC1A5 / RFU, SLMO2 / Fold change vs veh, SLMO2 / RFU, ABCC4 / Fold change vs veh, ABCC4 / RFU, LOC101060439 /// RAP1B / Fold change vs veh, LOC101060439 /// RAP1B / RFU, RFX7 / Fold change vs veh, RFX7 / RFU, GTPBP10 / Fold change vs veh, GTPBP10 / RFU, CNEP1R1 / Fold change vs veh, CNEP1R1 / RFU, BIVM-ERCC5 /// ERCC5 / Fold change vs veh, BIVM-ERCC5 /// ERCC5 / RFU, ILF3 / Fold change vs veh, ILF3 / RFU 11762660_at / Fold change /veh 11762660_at / RFU VCAN (11757783_s_at) / Fold change /veh VCAN (11757783_s_at) / RFU DDX43 (11728927_at) / Fold change /veh DDX43 (11728927_at) / RFU KRT8 (11758188_x_at) / Fold change /veh KRT8 (11758188_x_at) / RFU NKD1 (11759106_at) / Fold change /veh NKD1 (11759106_at) / RFU SRD5A1 (11742802_a_at) / Fold change /veh SRD5A1 (11742802_a_at) / RFU TPSAB1 /// TPSB2 (11721975_s_at) / Fold change /veh TPSAB1 /// TPSB2 (11721975_s_at) / RFU GSTM3 (11746129_a_at) / Fold change /veh GSTM3 (11746129_a_at) / RFU IL23R (11737362_x_at) / Fold change /veh IL23R (11737362_x_at) / RFU TMEM51 (11727254_a_at) / Fold change /veh TMEM51 (11727254_a_at) / RFU PIWIL2 (11732686_x_at) / Fold change /veh PIWIL2 (11732686_x_at) / RFU ORM1 (11744905_x_at) / Fold change /veh ORM1 (11744905_x_at) / RFU CCDC152 (11743942_at) / Fold change /veh CCDC152 (11743942_at) / RFU ECM1 (11717891_a_at) / Fold change /veh ECM1 (11717891_a_at) / RFU IL23R (11748794_a_at) / Fold change /veh IL23R (11748794_a_at) / RFU TNFAIP8L3 (11732012_x_at) / Fold change /veh TNFAIP8L3 (11732012_x_at) / RFU MBOAT4 (11741988_at) / Fold change /veh MBOAT4 (11741988_at) / RFU 11764193_at / Fold change /veh 11764193_at / RFU TMEM53 (11763286_at) / Fold change /veh TMEM53 (11763286_at) / RFU MAGEB2 (11727129_at) / Fold change /veh MAGEB2 (11727129_at) / RFU TMEM200A (11744735_a_at) / Fold change /veh TMEM200A (11744735_a_at) / RFU CCDC152 (11751479_a_at) / Fold change /veh CCDC152 (11751479_a_at) / RFU FAM211A (11726209_a_at) / Fold change /veh FAM211A (11726209_a_at) / RFU RGS16 (11746705_a_at) / Fold change /veh RGS16 (11746705_a_at) / RFU VCAN (11755009_s_at) / Fold change /veh VCAN (11755009_s_at) / RFU RHOB (11743442_s_at) / Fold change /veh RHOB (11743442_s_at) / RFU RGS16 (11720943_a_at) / Fold change /veh RGS16 (11720943_a_at) / RFU RGS16 (11720944_at) / Fold change /veh RGS16 (11720944_at) / RFU, VPS4B / Fold change vs veh, VPS4B / RFU, CREB1 / Fold change vs veh, CREB1 / RFU, DNAJC13 / Fold change vs veh, DNAJC13 / RFU, GNAQ / Fold change vs veh, GNAQ / RFU, CDK5R1 / Fold change vs veh, CDK5R1 / RFU, ZRANB3 / Fold change vs veh, ZRANB3 / RFU, CUL4A / Fold change vs veh, CUL4A / RFU, CCNY / Fold change vs veh, CCNY / RFU, UFL1 / Fold change vs veh, UFL1 / RFU, COG3 / Fold change vs veh, COG3 / RFU, DIAPH2 / Fold change vs veh, DIAPH2 / RFU, SKA2 / Fold change vs veh, SKA2 / RFU, AFF3 / Fold change vs veh, AFF3 / RFU, LMF1 / Fold change vs veh, LMF1 / RFU, IPO11 / Fold change vs veh, IPO11 / RFU, DFFB / Fold change vs veh, DFFB / RFU, FOXP1 / Fold change vs veh, FOXP1 / RFU, CARD8 / Fold change vs veh, CARD8 / RFU, STRN3 / Fold change vs veh, STRN3 / RFU, ADK / Fold change vs veh, ADK / RFU, RASSF2 / Fold change vs veh, RASSF2 / RFU, WIPF1 / Fold change vs veh, WIPF1 / RFU, LARP1B / Fold change vs veh, LARP1B / RFU, RASA1 / Fold change vs veh, RASA1 / RFU, RB1 / Fold change vs veh, RB1 / RFU, PPFIA1 / Fold change vs veh, PPFIA1 / RFU, MAT2A / Fold change vs veh, MAT2A / RFU, CCT5 / Fold change vs veh, CCT5 / RFU, WDR92 / Fold change vs veh, WDR92 / RFU, CUX1 / Fold change vs veh, CUX1 / RFU, TTC7A / Fold change vs veh, TTC7A / RFU, TMEM135 / Fold change vs veh, TMEM135 / RFU, DEPTOR / Fold change vs veh, DEPTOR / RFU, CPM / Fold change vs veh, CPM / RFU, DNAJB6 / Fold change vs veh, DNAJB6 / RFU, CACNA2D3 / Fold change vs veh, CACNA2D3 / RFU, DTX4 / Fold change vs veh, DTX4 / RFU, TFCP2 / Fold change vs veh, TFCP2 / RFU, GMCL1 /// GMCL1P1 / Fold change vs veh, GMCL1 /// GMCL1P1 / RFU, AEBP2 / Fold change vs veh, AEBP2 / RFU, SNHG1 /// SNORD22 /// SNORD25 /// SNORD26 /// SNORD27 /// SNORD28 /// SNORD29 /// SNORD31 / Fold change vs veh, SNHG1 /// SNORD22 /// SNORD25 /// SNORD26 /// SNORD27 /// SNORD28 /// SNORD29 /// SNORD31 / Fold change (Aza/veh), C12orf56 (ProbeSet 11735607_a_at) / Fold change (ACY-1035/veh), C12orf56 (ProbeSet 11735607_a_at) / Fold change (Aza/veh), FGFR1OP (ProbeSet 11751329_s_at) / Fold change (ACY-1035/veh), FGFR1OP (ProbeSet 11751329_s_at) / Fold change (Aza/veh), VPS36 (ProbeSet 11739960_a_at) / Fold change (ACY-1035/veh), VPS36 (ProbeSet 11739960_a_at) / RFU SYPL1 (11715823_x_at) / Fold change /veh SYPL1 (11715823_x_at) / RFU IGFBP7 (11715501_s_at) / Fold change /veh IGFBP7 (11715501_s_at) / RFU REEP3 (11722064_at) / Fold change /veh REEP3 (11722064_at) / RFU IGLL1 (11728026_x_at) / Fold change /veh IGLL1 (11728026_x_at): dose or concentration left out as unconfirmed
Details: MV-4-11 cells, 48 hours

Nc1ncn([C@@H]2O[C@H](CO)[C@@H](O)[C@H]2O)c(=O)n1 [azacitidine]
Fold change /veh OASL (11726364_x_at): 0.86

Reference: publication PMC5218480 (PLoS ONE, 2017)
